Calls of active or inactive are those of the source. No cut-off for these calls is given here.
Experiments:
[1] = system: Mythimna separata; experiment: Insecticidal activity against Mythimna separata (Oriental armyworm) pre-third-instar larvae fed on 1 mg/ml compound pre-treated wheat leaves assessed as insect mortality measured after 20 days by leaf-dipping method; assay type: functional
[2] = system: Mythimna separata; experiment: Insecticidal activity against Mythimna separata (Oriental armyworm) pre-third-instar larvae fed on 1 mg/ml compound pre-treated wheat leaves assessed as insect mortality measured after 10 days by leaf-dipping method; assay type: functional
[3] = system: Mythimna separata; experiment: Insecticidal activity against Mythimna separata (Oriental armyworm) pre-third-instar larvae fed on 1 mg/ml compound pre-treated wheat leaves assessed as insect mortality measured after 34 days by leaf-dipping method; assay type: functional
[4] = system: Mythimna separata; experiment: Insecticidal activity against Mythimna separata (Oriental armyworm) pre-third-instar larvae fed on 1 mg/ml compound pre-treated wheat leaves assessed as insect mortality by leaf-dipping method; assay type: functional, organism-based; details: TDE = time-dependent effect
[5] = system: Mythimna separata; experiment: Insecticidal activity against Mythimna separata (Oriental armyworm) pre-third-instar larvae fed on 1 mg/ml compound pre-treated wheat leaves assessed as induction of malformation of pupae measured during pupation period by leaf-dipping method; assay type: functional, organism-based
[6] = system: Mythimna separata; experiment: Insecticidal activity against Mythimna separata (Oriental armyworm) pre-third-instar larvae fed on 1 mg/ml compound pre-treated wheat leaves assessed as induction of malformation of pupae with imperfect wings measured during emergence period by leaf-dipping method; assay type: functional, organism-based

Structure (SMILES)	mortality [1] [%]	mortality [2] [%]	mortality [3] [%]	Activity [4]	Activity [5]	Activity [6]
COc1cc([C@@H]2c3cc4c(cc3[C@@H](OC(C)=O)[C@H]3COC(=O)[C@H]23)OCO4)cc2nc3ccccc3nc12	20.7	6.7	41.4	tde		
CCCCCCCCCCCC(=O)O[C@@H]1c2cc3c(cc2[C@@H](c2cc(OC)c4nc5ccccc5nc4c2)[C@H]2C(=O)OC[C@@H]21)OCO3	6.9	0	34.5	tde	Active	
COc1cc([C@@H]2c3cc4c(cc3[C@@H](O)[C@H]3COC(=O)[C@H]23)OCO4)cc2nc3ccccc3nc12	13.8	3.3	31	tde	Active	
CC(=O)O[C@@H]1C[C@H](O)[C@@]23CO[C@@H](O)[C@]1(C)[C@@H]2C[C@@H](O)[C@]1(C)[C@@H]3C(=O)[C@H](OC(C)=O)[C@@]2(C)[C@H](c3ccoc3)C[C@H]3O[C@]321 [TOOSENDANIN]	27.6	10	51.7	tde		
CCC(=O)O[C@@H]1c2cc3c(cc2[C@@H](c2cc(OC)c4nc5ccccc5nc4c2)[C@H]2C(=O)OC[C@@H]21)OCO3	27.6	20	55.2	tde		Active
COc1cc([C@@H]2c3cc4c(cc3[C@@H](OC(=O)c3ccccc3Cl)[C@H]3COC(=O)[C@H]23)OCO4)cc2nc3ccccc3nc12	20.7	10	51.7	tde	Active	
COc1cc([C@@H]2c3cc4c(cc3[C@@H](OC(=O)c3ccc(Cl)cc3)[C@H]3COC(=O)[C@H]23)OCO4)cc2nc3ccccc3nc12	17.2	0	48.3	tde		
CCCC(=O)O[C@@H]1c2cc3c(cc2[C@@H](c2cc(OC)c4nc5ccccc5nc4c2)[C@H]2C(=O)OC[C@@H]21)OCO3	10.3	3.3	37.9	tde		Active
COc1cc([C@@H]2c3cc4c(cc3[C@@H](OC(=O)c3ccc(Cl)c([N+](=O)[O-])c3)[C@H]3COC(=O)[C@H]23)OCO4)cc2nc3ccccc3nc12	27.6	10	55.2	tde		Active
CCCCCCCCCCCCCCCC(=O)O[C@@H]1c2cc3c(cc2[C@@H](c2cc(OC)c4nc5ccccc5nc4c2)[C@H]2C(=O)OC[C@@H]21)OCO3	6.9	0	27.6	tde		
COc1cc([C@@H]2c3cc4c(cc3[C@@H](OC(=O)c3ccc([N+](=O)[O-])cc3)[C@H]3COC(=O)[C@H]23)OCO4)cc2nc3ccccc3nc12	13.8	3.3	37.9	tde		
COc1cc([C@@H]2c3cc4c(cc3[C@@H](OC(=O)c3cccc(C)c3)[C@H]3COC(=O)[C@H]23)OCO4)cc2nc3ccccc3nc12	13.8	6.7	41.4	tde		Active
COc1cc([C@@H]2c3cc4c(cc3[C@@H](OC(=O)c3ccccc3)[C@H]3COC(=O)[C@H]23)OCO4)cc2nc3ccccc3nc12	17.2	3.3	24.1	tde		
COc1cc([C@@H]2c3cc4c(cc3[C@H](O)[C@H]3COC(=O)[C@H]23)OCO4)cc(OC)c1OC [PODOFILOX]	17.2	6.7	34.5	tde		
COc1cc([C@@H]2c3cc4c(cc3[C@@H](OC(=O)Cc3ccc5ccccc5c3)[C@H]3COC(=O)[C@H]23)OCO4)cc2nc3ccccc3nc12	6.9	3.3	51.7	tde		Active
CCCCCCCCCCC(=O)O[C@@H]1c2cc3c(cc2[C@@H](c2cc(OC)c4nc5ccccc5nc4c2)[C@H]2C(=O)OC[C@@H]21)OCO3	10.3	0	37.9	tde	Active	Active
COc1cc([C@@H]2c3cc4c(cc3[C@@H](OC(=O)c3cccc(Cl)c3)[C@H]3COC(=O)[C@H]23)OCO4)cc2nc3ccccc3nc12	17.2	6.7	41.4	tde	Active	
COc1cc([C@@H]2c3cc4c(cc3[C@@H](O)[C@H]3COC(=O)[C@H]23)OCO4)cc(OC)c1O [4'-DEMETHYLEPIPODOPHYLLOTOXIN]	13.8	6.7	37.9	tde		
